How the values were obtained:
[1] = test system: IRF3 activation in PD-L1 high HEK293T STING reporter cell line; test: IRF3 activation in HEK293T STING reporter cells, high PD-L1; assay type: cell-based, human; settings: high PD-L1 cells, 20 hours; read-out: IRF Activation EC50 (nM), High PD-L1
Summary of the method: (§1)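 HEK293T-derived STING reporter cells (293T-Dual hSTING-R232, ISRE-inducible SEAP) with native low PD-L1 or stably overexpressing human PD-L1, 100,000 cells/well, treated with serially diluted STING agonist conjugates for 20 hours at 37° C. IRF activity read as supernatant SEAP by QUANTI-Blue.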

[2] = test system: IFNβ production in CD11b+ monocytes; test: IFN-beta induction in CD11b+ monocytes from healthy donor PBMC; assay type: cell-based, human; settings: CD11b+ monocyte cultures, 20 hours, mean ± SEM
Procedure: (§2) CD11b^+ cells were isolated from healthy PBMCs as well as Pleural effusion samples using Miltenyi isolation kit according to manufacturer's protocol. Cells were seeded in 96 well plates at the density of 300,000 cells/wells, and then treated with various concentrations of compounds for 20 hours. After 20 hours, IFN-beta secretion levels were evaluated in the culture supernatants by MSD singleplex assay. EC50 values were calculated using Prism software.
(§3) Different naked STING agonisst and PD-L1-targeted small molecule-STING agonist conjugates were added to CD11b^+ monocytes cultures isolated from healthy donor blood or lung cancer patients' pleural effusions. Culture supernatants were collected 20 hours later and IFNβ production were determined using MSD singleplex assay.

PD-L1 [3] = molecular target: T1, PD-L1 (Homo sapiens (Human), UniProt Q9NZQ7); test: PD-L1 surface levels on HEK293T STING reporter cells, high PD-L1; assay type: cell-based
T1 sequence (Q9NZQ7 19-290): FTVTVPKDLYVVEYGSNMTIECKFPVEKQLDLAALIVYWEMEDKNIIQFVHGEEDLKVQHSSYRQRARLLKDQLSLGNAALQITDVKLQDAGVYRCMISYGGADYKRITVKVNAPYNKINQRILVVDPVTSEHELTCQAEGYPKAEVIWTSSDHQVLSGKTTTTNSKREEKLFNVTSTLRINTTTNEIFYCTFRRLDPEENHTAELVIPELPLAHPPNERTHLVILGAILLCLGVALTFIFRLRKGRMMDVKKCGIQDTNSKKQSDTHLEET

[4] = test system: IFNβ production in CD11b+ monocytes; test: IFN-beta induction in CD11b+ monocytes from lung cancer pleural effusions; assay type: cell-based, human; settings: CD11b+ monocyte cultures, lung cancer pleural effusion, 20 hours, read-out: EC50 for IFNβ induction, Cancer patient
Procedure: as §2, §3

[5] = test system: IRF3 activation in PD-L1 low HEK293T STING reporter cell line; test: IRF3 activation in HEK293T STING reporter cells, low PD-L1; assay type: cell-based, human; settings: 20 hours, read-out: IRF Activation EC50 (nM), Low PD-L1
Summary of the method: as §1

PD-1/PD-L1 = PD-1/PD-L1 (Homo sapiens (Human), UniProt Q9NZQ7); test: PD-1/PD-L1 binding assay (Alphascreen)
PD-1/PD-L1, sequence (Q9NZQ7 19-238): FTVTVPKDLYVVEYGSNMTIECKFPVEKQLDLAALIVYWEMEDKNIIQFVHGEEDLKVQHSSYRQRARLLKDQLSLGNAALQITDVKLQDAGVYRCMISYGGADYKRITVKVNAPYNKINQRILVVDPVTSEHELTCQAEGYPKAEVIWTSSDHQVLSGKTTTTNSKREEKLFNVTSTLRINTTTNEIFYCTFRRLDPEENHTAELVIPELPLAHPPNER
Procedure: Binding assays were conducted in a low volume white 384-well polystyrene plate in a final volume of 20 μL. Compounds to be analyzed were first serially diluted in DMSO and added to the plate wells before the addition of other reaction components. The final concentration of DMSO in the assay was 1%. The assay was carried out at 25° C. in the PBS buffer (pH 7.4) with 0.05% Tween-20 and 0.1% BSA. Recombinant human PD-L1 protein (19-238) with a His-tag at the C-terminus was purchased from AcroBiosystems (PD1-H5229). Recombinant human PD-1 protein (25-167) with Fc tag at the C-terminus was also from AcroBiosystems (PD1-H5257). PD-L1 and PD-1 proteins were diluted in the assay buffer (final concentration—0.67 and 0.20 nM respectively) and 10 μL was added to the plate well. Plates were centrifuged and proteins were preincubated with compounds for 40 minutes. The incubation was followed by the addition of 10 μL of assay buffer supplemented with Alphascreen Ni chelate donor beads (PerkinElmer—AS101D) and Protein A Acceptor beads (PerkinElmer—6760137) at final concentration 2.5 μg/mL under reduced light. After plate sealing, the plate was incubated in the dark at room temperature for 120 minutes before reading on a PHERAstar FS plate reader (BMG Labtech). IC50 determination was performed by fitting the curve of percent control activity versus the log of the compound concentration using the GraphPad Prism 5.0 software.

PD-L1 [6] = molecular target: T1, PD-L1; test: Indirect PD-L1 internalization assay using MDA-MB231 cells; assay type: cell-based; settings: 16 hrs
Procedure: For the indirect analysis, cell surface PD-L1 was detected with fluorescently labeled anti-PD-L1 (CD274) antibodies. CHO-PD-L1 cells were seeded at 2×10^5 cells per well of a 6-well tissue culture plate in 2 ml of F-12 medium supplemented with 10% FBS, 200 μg/ml Hydromycin and 250 μg/ml Geneticin and allowed to attach for 24 hours. After 24 hours, test compounds were added to a final concentration of 1 uM from DMSO stocks, and an equal volume of DMSO was added to control wells. Cells were incubated in the presence of a compound for 16 hours at 37° C., 5% CO2. Prior to analysis, the cells were washed twice with 1 mL of Ca, Mg free PBS and detached with 1 mL of lift buffer (10 mM Tris, 140 mM NaCl, 1 mM EDTA). The collected cells were stained with PE-conjugated mouse anti-human CD274 antibody according to manufacturer instructions: BD Pharmigen #557924 Clone MIH1 (20 μL of Ab per 100 uL of BSA based staining buffer) or eBioscience #12-5983 Clone MIH1 (2 μL per 100 ul of BSA based staining buffer). Cells were incubated at room temperature for 20 minutes, protected from light, washed twice with Ca, Mg free PBS and resuspended in 400 μL of PBS. Antibody binding was detected by flow cytometry using an Accuri C6 instrument. Isotype control antibody-stained cells were used as a negative control. To test that lack of PD-L1 cell surface staining was not due to inhibition of detection antibody binding by the test article, an acid-wash procedure was used. After 16 hours of incubation in the presence of a compound or anti-PD-L1 antibody, the remaining, non-internalized a compound or antibody was stripped from the cell surface using freshly prepared, ice-cold acid stripping buffer (DMEM/0.2% BSA, pH 3.5). Cells were washed in this manner three times for 5 minutes each on a shaking platform. The stripped cells were then washed with ice-cold PBS three times for 5 minutes each with gentle shaking, harvested with lift buffer and stained with PE-mouse anti human CD274 antibodies as described.
For the indirect method of assessing PD-L1 internalization using the MDA-MB231 breast cancer cell line, the procedure for the assays was the same as described for the CHO-PD-L1 cells with the following changes. MDA-MB231 were seeded at 2×10^5 cells per well of a 6-well tissue culture plate in 2 ml of RPMI1640 medium supplemented with 10% FBS. After compound treatment for 16 hrs, the cells were treated with the stripping buffer (DMEM/0.2% BSA, pH 3.5) prior to staining with the anti-CD274 antibodies as described.

PD-L1 [7] = molecular target: T1, PD-L1; test: Indirect whole blood PD-L1 internalization assay; assay type: cell-based; settings: interferon γ, 18 hours, CD14+ gated
Procedure: To determine PD-L1 internalization in human whole blood, normal human blood (Biological Specialty Corp, Colmar. Pa.) was incubated in the presence or absence of a concentration range of test compounds and 1 ng/ml human interferon γ (R&D Systems Inc. Minn. Minn.) in a 96 well round bottom plate (Corning, Corning, N.Y.) for 18 hours at 37° C. Blood was then transferred into 96 well “2 ml Assay Block” (Corning, Corning N.Y.) and stained with PD-L1 (MIH1, eBioscience; or BD Biosciences San Jose, Calif.), CD14 (Life Technologies, Carlsbad, Calif.) for 30 minutes in the dark at room temperature. Whole Blood/red cells were lysed/fixed (lysis buffer BD Biosciences) for 5 minutes at 37° C. in dark and then centrifuged at 1600 RPM for 5 minutes and cells were transferred into 96 well round bottom plates (Corning). Cells were gated on CD14+ (BD Biosciences) and PD-L1 expression determined by mean fluorescence intensity (MFI) (BD LSRFortessa™ X-20). IC50 determination was performed by fitting the curve of compound percent inhibition versus the log of the compound concentration using the GraphPad Prism 7.0 software.

IRF3 = IRF3 activation assay in THP-1 Dual cells; assay type: cell-based; settings: Homo sapiens, THP-1, Table 4C; read-out: THP1 IRF3 EC50
Summary of the method: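 THP-1 Dual cells (100,000/well) were treated with serially diluted compound for 24 h at 37° C, 5% CO2. IRF3 reporter activity in supernatant was read with QUANTI-Blue as absorbance at 620-655 nm after 2 h, with untreated cells as negative control. EC50 came from fitting percent control activity against log concentration.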

| SMILES | IC50 (PD-1/PD-L1) | IC50 (PD-L1 [6]) | IC50 (PD-L1 [7]) | further results |
| --- | --- | --- | --- | --- |
| CCn1nc(C)cc1C(=O)Nc1nc2cc(C(N)=O)cc(OCCCNC(=O)[C@H](CC(=O)O)NC(=O)[C@H](CC(=O)O)NC(=O)[C@H](CCCNC(=N)N)NC(=O)[C@H](CC(=O)O)NC(=O)CCCN3CCc4c(nc(C(=O)Nc5cccc(-c6cccc(NC(=O)c7nc8c(n7C)CCN(CCCC(=O)O)C8)c6Cl)c5Cl)n4C)C3)c2n1C/C=C/Cn1c2nc(-c3cc(C)nn3CC)ncc2c2cc(C(N)=O)cc(OC)c21 [Example 7] | – | – | – | EC50 [1]: < 50 nM; EC50 [2]: 2.01 ± 0.308 µM; IC50 (PD-L1 [3]): < 0.05 µM; EC50 [4]: 0.643 µM; EC50 [5]: 50 to 200 nM |
| Cc1c(NC(=O)c2nc3c(n2C)CCN(C[C@@H](C)O)C3)cccc1-c1cccc(NC(=O)c2nc3c(n2C)CCN(C)C3)c1Cl [Example P10] | 0.1 to 1 nM | < 0.01 µM | < 0.1 µM | – |
| Cc1c(-c2nc3cc(CN4CC[C@@H](C(=O)O)C4)cc(C#N)c3o2)cccc1-c1cccc(-c2nc3c(s2)CNCC3)c1C [Example P12] | 0.1 to 1 nM | 0.01 to 0.1 µM | 0.1 to 1 µM | – |
| Cc1c(Nc2nccc3cc(CN4CC[C@@H](O)C4)cnc23)cccc1-c1cccc(-c2nc3cc(CC4CC[C@@H](C(=O)O)C4)cc(C#N)c3o2)c1C (some centres unmarked) [Example P14] | 0.1 to 1 nM | < 0.01 µM | < 0.1 µM | – |
| Cc1c(-c2nc3cc(CN4CC[C@@](C)(C(=O)O)C4)cc(C#N)c3o2)cccc1-c1cccc(Nc2nccc3cc(CN4CC[C@H](O)C4)cnc23)c1Cl [Example P16] | 0.1 to 1 nM | 0.01 to 0.1 µM | 0.1 to 1 µM | – |
| Cc1c(Nc2nccc3cc(CN4CC[C@@H](O)C4)cnc23)cccc1-c1cccc(-c2nc3c(Cl)cc(CN4CC[C@@H](C(=O)O)C4)cn3n2)c1C [Example P17] | 0.1 to 1 nM | 0.1 to 0.5 µM | 0.1 to 1 µM | – |
| Cc1c(-c2nc3cc(CN4CC[C@@H](C(=O)O)C4)cc(C#N)c3o2)cccc1-c1cccc(-n2cc3c(n2)CN(C(C)C)CC3)c1Cl [Example P19] | 0.1 to 1 nM | > 0.5 µM | 0.1 to 1 µM | – |
| CCn1nc(C)cc1C(=O)Nc1nc2cc(C(N)=O)cc(OCCCNC(=O)OCC(=O)O)c2n1C/C=C/Cn1c2nc(-c3cc(C)nn3CC)ncc2c2cc(C(N)=O)cc(OCCCOC)c21 [Example S45, (E)-2-(((3-((5-carbamoyl-1-(4-(6-carbamoyl-2-(1-ethyl-3-methyl-1H-pyrazol-5-yl)-8-(3-methoxypropoxy)-9H-pyrimido[4,5-b]indol-9-yl)but-2-en-1-yl)-2-(1-ethyl-3-methyl-1H-pyrazole-5-carboxamido)-1H-benzo[d]imidazol-7-yl)oxy)propyl)carbamoyl)oxy)acetic acid] | – | – | – | EC50 (IRF3): ≤ 0.05 µM; EC50 ([2]; Homo sapiens): 0.119 ± 0.022 µM; EC50 ([4]; Homo sapiens): 0.056 µM |
| CCn1nc(C)cc1C(=O)Nc1nc2cc(C(N)=O)cc(OCCCOC(=O)NCCC(=O)O)c2n1C/C=C/Cn1c2nc(-c3cc(C)nn3CC)ncc2c2cc(C(N)=O)cc(OCCCOC)c21 [Example S48, (E)-3-(((3-((5-carbamoyl-1-(4-(6-carbamoyl-2-(1-ethyl-3-methyl-1H-pyrazol-5-yl)-8-(3-methoxypropoxy)-9H-pyrimido[4,5-b]indol-9-yl)but-2-en-1-yl)-2-(1-ethyl-3-methyl-1H-pyrazole-5-carboxamido)-1H-benzo[d]imidazol-7-yl)oxy)propoxy)carbonyl)amino)propanoic acid] | – | – | – | EC50 (IRF3): ≤ 0.05 µM; EC50 ([2]; Homo sapiens): 0.064 ± 0.012 µM; EC50 ([4]; Homo sapiens): 0.038 µM |

Now from value to compound, other results behind:

| IC50 (PD-1/PD-L1) | IC50 (PD-L1 [6]) | IC50 (PD-L1 [7]) | SMILES | further results |
| --- | --- | --- | --- | --- |
| 0.1 to 1 nM | 0.01 to 0.1 µM | 0.1 to 1 µM | Cc1c(Nc2nccc3cc(CN4CC[C@@H](O)C4)cnc23)cccc1-c1cccc(-c2nc3cc(CNCC(C)(C)C(=O)O)cc(C#N)c3o2)c1C [Example P21] | – |
| 0.1 to 1 nM | 0.01 to 0.1 µM | 0.1 to 1 µM | Cc1c(Nc2nccc3cc(CN4CC[C@H](C(=O)O)C4)cnc23)cccc1-c1nccc(Nc2nccc3cc(CN4CC[C@@H](O)C4)cnc23)c1C [Example P23] | – |
| 0.1 to 1 nM | 0.01 to 0.1 µM | 0.1 to 1 µM | Cc1c(Nc2nccc3cc(CN4CC[C@@H](O)C4)cnc23)cccc1-c1cccc(-c2nc3cc(CN4CC(C(=O)O)C4)cc(Cl)c3o2)c1C [Example P24] | – |
| 0.1 to 1 nM | 0.01 to 0.1 µM | 1 to 5 µM | Cc1c(-c2nc3c(Cl)cc(CN4CC[C@@H](O)C4)cn3n2)cccc1-c1cccc(-c2nc3cc(CN4CC[C@@H](C(=O)O)C4)cc(C#N)c3o2)c1C [Example P25] | – |
| 0.1 to 1 nM | 0.01 to 0.1 µM | 0.1 to 1 µM | Cc1c(-c2nc3c(C#N)cc(CN4CC[C@@H](O)C4)cn3n2)cccc1-c1cccc(-c2nc3cc(CN4CC[C@@H](C(=O)O)C4)cc(C#N)c3o2)c1C [Example P26] | – |

Source: patent US11596692B1 (Incyte Corporation, priority 2018, dated 2023)
